Test results published in PMC6220849, “Mechanistic and structural studies of KDM‐catalysed demethylation of histone 1 isotype 4 at lysine 26” (Febs Letters, 2018).
Square brackets hold non-standard residues; d marks the D form. Ends that are not written are not given here. Lys(Me2) = CN(C)CCCC[C@H](N)C(=O)O

Legend:
recombinant human KDM4A = biological target: T1, recombinant human KDM4A (Homo sapiens, UniProt O75164); assay: Formaldehyde dehydrogenase (FDH)-coupled demethylation assay, Michaelis–Menten kinetics; format: biochemical; details: peptide as substrate
T1 construct: recombinantly expressed as reported either in Escherichia coli (KDM2A1–557 25, KDM4A1–359 26); His6 (N); made in house; host or cells: Escherichia coli
T1 sequence (O75164 1-359): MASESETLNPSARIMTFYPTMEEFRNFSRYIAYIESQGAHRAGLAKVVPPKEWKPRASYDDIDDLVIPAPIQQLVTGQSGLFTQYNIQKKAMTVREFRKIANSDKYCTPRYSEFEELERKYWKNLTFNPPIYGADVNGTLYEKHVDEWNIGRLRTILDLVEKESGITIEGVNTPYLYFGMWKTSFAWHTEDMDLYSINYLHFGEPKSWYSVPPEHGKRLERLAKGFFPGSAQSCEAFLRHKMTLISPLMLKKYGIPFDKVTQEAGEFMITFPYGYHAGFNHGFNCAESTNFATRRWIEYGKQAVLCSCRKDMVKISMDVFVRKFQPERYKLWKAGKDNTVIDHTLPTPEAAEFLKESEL
Protocol: Kinetic parameters for KDM4 enzymes were determined by use of an FDH (formaldehyde dehydrogenase)/NAD^+‐coupled) assay for quantification of the formaldehyde reaction byproduct, as previously described 27. […] Specific activities were measured using a 100‐μM peptide. For Michaelis–Menten experiments, peptide concentrations were varied. Reactions were monitored using a PHERAstar FS plate reader (BMG Labtech, Ortenberg, Germany) with 355 nm excitation and 460 nm emission. Kinetic parameters were calculated from the reaction rate during the initial linear phase of formaldehyde production, which were used to calculate specific activities or fitted to Michaelis–Menten equations using […] PRISM (GraphPad Software, La Jolla, CA, USA).
Michaelis–Menten kinetics were then conducted with KDM4A. Samples containing KDM4A, 2OG, ascorbate, H1.4K26me3 peptide, NAD^+ and FDH were analysed over time and kinetic parameters were determined by recording the initial reaction rates of NADH production (corresponding to enzymatic production of formaldehyde) at varying peptide concentration.

KDM5C (KDM5C1–765) = assay: MALDI-TOF MS demethylation activity assay, KDM5C; format: biochemical, human; parameters: key: 🟢: Indicates that clear demethylation activity was observed; 🟡: Indicates that low level demethylation activity was observed (<10% conversion after 1 h); 🔴: Indicates no activity under the stated conditions (1 μM KDM, 10 μM peptide); 🟡*: *Indicates demethylation activity was only observed with 5 μM KDM; details: peptide as substrate, 1 μM KDM, 10 μM peptide, 50 mM HEPES pH 7.5, Fe(II) 10 μM, ascorbate 100 μM, 2OG 200 μM, 1 h at 37 °C
Protocol: (§1) Recombinant proteins (1 μM) were incubated with peptides (10 μM, sequences are given in Table S1) in 50 mM HEPES, pH 7.5 with addition of Fe(II) ammonium sulfate (10 μM), sodium ascorbate (100 μM) and 2‐oxoglutaric acid (200 μM). Reactions with KDM3A and KDM7A also contained 1 mM tris(2‐carboxyethyl)phosphine hydrochloride. No enzyme reactions were included as negative controls. Reactions were incubated for 1 h at 37 °C before being quenched with 1 : 1 (v/v) methanol. Analysis was carried out by MALDI‐TOF MS (Bruker, Billerica, MA, USA), with demethylation observed as mass shifts of 14 Da.
(§2) The propensity of human JmjC KDMs to catalyse demethylation at H1.4K26 was investigated using recombinant forms of the catalytic domains of representatives of each human JmjC KDM subfamily (KDM2‐7) and fragment peptides (Table S1) 37. Three peptides with identical sequences, corresponding to residues 18–32 of histone H1.4 (H2N‐[…]‐CONH2), but containing either a N ^ε‐tri‐, di‐ or monomethyllysine at K26 were synthesised (Fig. 1B and Table S1). Activity assays monitoring JmjC KDM‐catalysed demethylation of the peptides were then carried out; samples were prepared containing each peptide, 2‐oxoglutarate (2OG), ferrous iron, ascorbate and individual representatives from each JmjC KDM subfamily (KDM2A 38, KDM3A 21, KDM4E 22, KDM5C 39, 40, KDM6B 41, KDM7A 42).

KDM7A (KDM7A38–480) = assay: MALDI-TOF MS demethylation activity assay, KDM7A; format: biochemical, human
Protocol: as §1, §2
(§3) N ^ε‐Trimethylated H3K4 binds to the plant homeobox domain of KDM7B, targeting the N ^ε‐dimethyllysine at H3K9 to the catalytic domain, and thus promoting demethylation 29, 44. To test whether similar targeting may occur with H1.4, promoting activity at H1.4K26, an H1.4 peptide was synthesised containing di‐N ^ε‐methyllysine at K26 and tri‐N ^ε‐methyllysine at K21 (i.e. at the equivalent position in the sequence to K4 in the H3 peptide, Fig. 1B, Table S1). Monomethylation at H1.4K21 has previously been observed by proteomic mass spectrometry 45. With the aim of enhancing activity, the enzyme concentration was increased from 1 μM to 5 μM, and time course analyses were conducted with both KDM7A and KDM7B, both with the new peptide (H1.4(18–32)K21me3K26me2) and the H1.4 peptides methylated only at K26 (Fig. 2B). […] Thus, it appears unlikely that N ^ε‐trimethylation at H1.4K21 promotes demethylation at H1.4K26 by KDM7B.

KDM4C (KDM4C1–359) = assay: MALDI-TOF MS demethylation activity assay, KDM4C; format: biochemical, human; parameters: key: 🟢: Indicates that clear demethylation activity was observed; 🟡: Indicates that low level demethylation activity was observed (<10% conversion after 1 h); 🔴: Indicates no activity under the stated conditions (1 μM KDM, 10 μM peptide); 🟡*: *Indicates demethylation activity was only observed with 5 μM KDM; details: peptide as substrate, 1 μM KDM, 10 μM peptide, 50 mM HEPES pH 7.5, Fe(II) 10 μM, ascorbate 100 μM, 2OG 200 μM, 1 h at 37 °C
Protocol: as §1
(§4) Given the activity observed with KDM4E and KDM7A, we decided to investigate the intra‐subfamily conservation of this demethylation activity. The demethylation activity of the other subfamily members (KDM4A‐D and KDM7B) was therefore screened. […] Note that as with H3K9, demethylation of the monomethylated H1.4K26 peptide was only observed with KDM4E, under the stated conditions 24.

KDM4B (KDM4B1–359) = assay: MALDI-TOF MS demethylation activity assay, KDM4B; format: biochemical, human; parameters: key: 🟢: Indicates that clear demethylation activity was observed; 🟡: Indicates that low level demethylation activity was observed (<10% conversion after 1 h); 🔴: Indicates no activity under the stated conditions (1 μM KDM, 10 μM peptide); 🟡*: *Indicates demethylation activity was only observed with 5 μM KDM; details: peptide as substrate, 1 μM KDM, 10 μM peptide, 50 mM HEPES pH 7.5, Fe(II) 10 μM, ascorbate 100 μM, 2OG 200 μM, 1 h at 37 °C
Protocol: as §1, §4

KDM4E (KDM4E1–337) = assay: MALDI-TOF MS demethylation activity assay, KDM4E; format: biochemical, human; parameters: key: 🟢: Indicates that clear demethylation activity was observed; 🟡: Indicates that low level demethylation activity was observed (<10% conversion after 1 h); 🔴: Indicates no activity under the stated conditions (1 μM KDM, 10 μM peptide); 🟡*: *Indicates demethylation activity was only observed with 5 μM KDM; details: peptide as substrate, 1 μM KDM, 10 μM peptide, 50 mM HEPES pH 7.5, Fe(II) 10 μM, ascorbate 100 μM, 2OG 200 μM, 1 h at 37 °C
Protocol: as §1, §2

KDM2A (KDM2A1–557) = assay: MALDI-TOF MS demethylation activity assay, KDM2A; format: biochemical, human; parameters: key: 🟢: Indicates that clear demethylation activity was observed; 🟡: Indicates that low level demethylation activity was observed (<10% conversion after 1 h); 🔴: Indicates no activity under the stated conditions (1 μM KDM, 10 μM peptide); 🟡*: *Indicates demethylation activity was only observed with 5 μM KDM; details: peptide as substrate, 1 μM KDM, 10 μM peptide, 50 mM HEPES pH 7.5, Fe(II) 10 μM, ascorbate 100 μM, 2OG 200 μM, 1 h at 37 °C
Protocol: as §1, §2

KDM6B (KDM6B1141–1590) = assay: MALDI-TOF MS demethylation activity assay, KDM6B; format: biochemical, human; parameters: key: 🟢: Indicates that clear demethylation activity was observed; 🟡: Indicates that low level demethylation activity was observed (<10% conversion after 1 h); 🔴: Indicates no activity under the stated conditions (1 μM KDM, 10 μM peptide); 🟡*: *Indicates demethylation activity was only observed with 5 μM KDM; details: peptide as substrate, 1 μM KDM, 10 μM peptide, 50 mM HEPES pH 7.5, Fe(II) 10 μM, ascorbate 100 μM, 2OG 200 μM, 1 h at 37 °C
Protocol: as §1, §2

KDM4D (KDM4D1–359) = assay: MALDI-TOF MS demethylation activity assay, KDM4D; format: biochemical, human; parameters: key: 🟢: Indicates that clear demethylation activity was observed; 🟡: Indicates that low level demethylation activity was observed (<10% conversion after 1 h); 🔴: Indicates no activity under the stated conditions (1 μM KDM, 10 μM peptide); 🟡*: *Indicates demethylation activity was only observed with 5 μM KDM; details: peptide as substrate, 1 μM KDM, 10 μM peptide, 50 mM HEPES pH 7.5, Fe(II) 10 μM, ascorbate 100 μM, 2OG 200 μM, 1 h at 37 °C
Protocol: as §1, §4

KDM7B (PHF8; KDM7B1–447) = assay: MALDI-TOF MS demethylation activity assay, KDM7B (PHF8); format: biochemical, human; parameters: key to demethylation activity on methylated H1.4 peptide: 🟢: Indicates that clear demethylation activity was observed; 🟡: Indicates that low level demethylation activity was observed (<10% conversion after 1 h); 🔴: Indicates no activity under the stated conditions (1 μM KDM, 10 μM peptide); 🟡*: *Indicates demethylation activity was only observed with 5 μM KDM; details: for demethylation at increased enzyme concentration (result in words): MALDI-TOF MS time course, KDM7B 5 μM, peptide 10 μM, 37 °C
Protocol: as §1, §4, §3

KDM3A (KDM3A515–1317) = assay: MALDI-TOF MS demethylation activity assay, KDM3A; format: biochemical, human; parameters: key: 🟢: Indicates that clear demethylation activity was observed; 🟡: Indicates that low level demethylation activity was observed (<10% conversion after 1 h); 🔴: Indicates no activity under the stated conditions (1 μM KDM, 10 μM peptide); 🟡*: *Indicates demethylation activity was only observed with 5 μM KDM; details: peptide as substrate, 1 μM KDM, 10 μM peptide, 50 mM HEPES pH 7.5, Fe(II) 10 μM, ascorbate 100 μM, 2OG 200 μM, 1 mM TCEP, 1 h at 37 °C
Protocol: as §1, §2

KDM4A (KDM4A1–359) = assay: MALDI-TOF MS demethylation activity assay, KDM4A; format: biochemical, human; parameters: key: 🟢: Indicates that clear demethylation activity was observed; 🟡: Indicates that low level demethylation activity was observed (<10% conversion after 1 h); 🔴: Indicates no activity under the stated conditions (1 μM KDM, 10 μM peptide); 🟡*: *Indicates demethylation activity was only observed with 5 μM KDM; details: peptide as substrate, 1 μM KDM, 10 μM peptide, 50 mM HEPES pH 7.5, Fe(II) 10 μM, ascorbate 100 μM, 2OG 200 μM, 1 h at 37 °C
Protocol: as §1, §4

[1] = concentration varied, FDH/NAD+-coupled fluorescence assay, 50 mM HEPES pH 7.5, 0.01% Tween-20, 2OG 200 μM, KDM4A, mean and standard deviation of three independent replicates, SD

Row | K M (recombinant human KDM4A; [1]) [µM] | k cat (recombinant human KDM4A; [1]) [s⁻¹] | k cat/K M (recombinant human KDM4A; FDH-coupled assay, ratio of k cat (s^−1) and K M (μM)) [M⁻¹ s⁻¹] | demethylation at increased enzyme concentration (result in words) (KDM7A (KDM7A38–480); MALDI-TOF MS time course, KDM7A 5 μM, peptide 10 μM, 37 °C) | demethylation at increased enzyme concentration (result in words) (KDM7B (PHF8; KDM7B1–447); listed as H1.4K26me2) | Substance | demethylation activity on methylated H1.4 peptide (KDM5C (KDM5C1–765)) | demethylation activity on methylated H1.4 peptide (KDM7A (KDM7A38–480); peptide as substrate, MALDI-TOF MS, 1 μM KDM, 10 μM peptide, 50 mM HEPES pH 7.5, Fe(II) 10 μM, ascorbate 100 μM, 2OG 200 μM, 1 mM TCEP, 1 h at 37 °C) | demethylation activity on methylated H1.4 peptide (KDM4C (KDM4C1–359)) | demethylation activity on methylated H1.4 peptide (KDM4B (KDM4B1–359)) | demethylation activity on methylated H1.4 peptide (KDM4E (KDM4E1–337)) | demethylation activity on methylated H1.4 peptide (KDM2A (KDM2A1–557)) | demethylation activity on methylated H1.4 peptide (KDM6B (KDM6B1141–1590)) | demethylation activity on methylated H1.4 peptide (KDM4D (KDM4D1–359)) | demethylation at increased enzyme concentration (result in words) (KDM7B (PHF8; KDM7B1–447)) | demethylation activity on methylated H1.4 peptide (KDM7B (PHF8; KDM7B1–447); peptide as substrate, MALDI-TOF MS, 1 μM KDM (* = only with 5 μM KDM), 10 μM peptide, 50 mM HEPES pH 7.5, Fe(II) 10 μM, ascorbate 100 μM, 2OG 200 μM, 1 h at 37 °C) | demethylation activity on methylated H1.4 peptide (KDM3A (KDM3A515–1317)) | demethylation activity on methylated H1.4 peptide (KDM4A (KDM4A1–359))
1 | 66.8 ± 5.4 | 0.12 ± 0.004 | 1900 |  |  | APATGGV-Kme3-KPHRYRP [H3(29–43)K36me3, histone H3 residues 29–43 peptide with Kme3 at K36, reference compound] |  |  |  |  |  |  |  |  |  |  |  | 
2 |  |  |  | clear evidence for demethylation | clear evidence for demethylation | TPVKKKAR[Lys(Me2)]SAGAAK [H1.4(18–32)K26me2, peptide of residues 18–32 of histone H1.4 with N ε-dimethyllysine at K26] | 🔴 | 🟡 (Indicates that low level demethylation activity was observed (<10% conversion after 1 h)) | 🟢 | 🟢 | 🟢 | 🔴 | 🔴 | 🟢 | demethylation of H1.4(18-32)K26me2 is observed | 🟡* | 🔴 | 🟢
